According to ChEMBL document CHEMBL1122680, “A photoaffinity reagent to label the opiate receptors of guinea pig ileum and mouse vas deferens” (J Med Chem, 1984):

Tests used:
Type in all cases: functional
[1] = species: Cavia porcellus; experiment: Inhibitory effect on electrically induced contraction of guinea pig ileum (GPI)
[2] = species: Mus musculus; experiment: Inhibitory effect on electrically induced contraction of Mouse vas deferens (MVD)
[3] = Relative potency calculated from the ratio of IC50 of [Leu]-enkephalin to that of the compound
[4] = species: Rattus norvegicus; experiment: Inhibitory effect on the binding of 2 nM [3H]naloxone to rat brain membrane

| Structure (SMILES) | IC50 [1] [nM] | IC50 [2] [nM] | Potency [3] | IC50 [4] [nM] |
| --- | --- | --- | --- | --- |
| CC(C)C[C@H](NC(=O)[C@H](Cc1ccccc1)NC(=O)CNC(=O)[C@H](C)NC(=O)[C@@H](N)Cc1ccc(O)cc1)C(=O)NCCNc1ccc(N=[N+]=[N-])cc1[N+](=O)[O-] | 4.35 | 2.59 | 46.8 | 2.52 |
| C=CCN1CC[C@]23c4c5ccc(O)c4O[C@H]2C(=O)CC[C@@]3(O)[C@H]1C5 [NALOXONE] |  |  | 18.5 | 6.39 |
| CC(C)C[C@H](NC(=O)[C@H](Cc1ccccc1)NC(=O)CNC(=O)[C@@H](C)NC(=O)[C@@H](N)Cc1ccc(O)cc1)C(N)=O | 5.23 | 2.88 | 3.9 | 30 |
| CC(C)C[C@H](NC(=O)[C@H](Cc1ccccc1)NC(=O)CNC(=O)CNC(=O)[C@@H](N)Cc1ccc(O)cc1)C(N)=O [[LEU5]ENKEPHALIN] | 120 | 17 | 1 | 118 |
